Results taken from article PMC8476755 (Frontiers in Chemistry, 2021).
Positions count from the first letter of the chain named.

How the values were obtained:
[1] = biological target: T1, BGT1 (Homo sapiens, UniProt P48065); assay: [3H]GABA uptake assay, single concentration screening; assay type: cell-based; details: read-out: Percentage inhibition of [3H]GABA uptake at BGT1, 100 µM test compound; n = 2
T1 construct: expressed in transfected cells
T1 sequence (P48065 1-614): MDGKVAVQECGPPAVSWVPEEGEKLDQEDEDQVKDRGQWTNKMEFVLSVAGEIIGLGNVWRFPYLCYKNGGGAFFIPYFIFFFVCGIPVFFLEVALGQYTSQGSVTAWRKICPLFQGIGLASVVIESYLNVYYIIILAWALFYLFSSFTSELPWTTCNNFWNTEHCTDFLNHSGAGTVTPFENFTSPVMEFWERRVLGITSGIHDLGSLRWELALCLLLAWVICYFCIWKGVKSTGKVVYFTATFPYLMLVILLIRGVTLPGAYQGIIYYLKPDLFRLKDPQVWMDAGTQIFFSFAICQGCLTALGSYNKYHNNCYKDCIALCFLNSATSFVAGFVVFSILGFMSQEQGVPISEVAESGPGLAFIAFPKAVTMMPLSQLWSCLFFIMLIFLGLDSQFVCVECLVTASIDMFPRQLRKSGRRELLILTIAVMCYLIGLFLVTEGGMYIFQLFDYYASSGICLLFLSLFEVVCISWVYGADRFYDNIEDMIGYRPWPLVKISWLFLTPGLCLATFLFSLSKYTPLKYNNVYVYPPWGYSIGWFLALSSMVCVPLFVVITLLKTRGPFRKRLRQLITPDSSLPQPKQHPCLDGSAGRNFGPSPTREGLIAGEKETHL
Method: (§1) Based on this finding, only 2 and bicyclo-GABA were further investigated pharmacologically.
(§2) (D–E) Gaddum-Schild analysis of bicyclo-GABA, yielding a Schild slope of 1.02 indicative of competitive inhibition with a calculated K B of 0.47 µM (n = 4). (F) Characterization of bicyclo-GABA and 2 at α1β2γ2 GABAA receptors by use of the FMP assay. […] Data are presented as means ± S.E.M.
Briefly, cells were seeded in white 96-well plates (White Opaque Tissue Culture (TC) plated 96-well Microplate) pre-coated with PDL. Medium was removed on the following day and cells washed with 100 µL/well assay buffer (HBSS supplemented with 20 mM HEPES, 1 mM CaCl2 and 1 mM MgCl2, pH 7.4). […] The cells were washed 3 times with 100 µL/well ice-cold assay buffer, 150 µL/well MicroScint™20 was subsequently added before the plate was shaken for at least 1 h. The plate was counted in a Packard TopCounter microplate scintillation counter (PerkinElmer) for 3 min per well. Typical counts per minute for the different GATs were in the range of: wt hBGT1 (100–4,000), BGT1 Q299 (100–1,000), hBGT E52Y (150–500), BGT1 E52A (150–8,000), BGT1 E52A + Q299L (150–500), wt GAT3 (200–8,000), GAT3 L314Q (100–1,500), wt GAT1 (100–10,000) and wt GAT2 (150–7,500). […] Data presented is the pooled data of at least three independent experiments with three technical replicates if not stated otherwise in figure legends. […]

[2] = test system: four human GABA transporters (GATs); assay: [3H]GABA uptake assay, single concentration screening at the four human GATs; assay type: cell-based; details: 100 µM test compound, n = 2
Method: as §1, §2
(§3) Briefly, cells were seeded in white 96-well plates (White Opaque Tissue Culture (TC) plated 96-well Microplate) pre-coated with PDL. Medium was removed on the following day and cells washed with 100 µL/well assay buffer (HBSS supplemented with 20 mM HEPES, 1 mM CaCl2 and 1 mM MgCl2, pH 7.4). […] The cells were washed 3 times with 100 µL/well ice-cold assay buffer, 150 µL/well MicroScint™20 was subsequently added before the plate was shaken for at least 1 h. The plate was counted in a Packard TopCounter microplate scintillation counter (PerkinElmer) for 3 min per well. Typical counts per minute for the different GATs were in the range of: wt hBGT1 (100–4,000), BGT1 Q299 (100–1,000), hBGT E52Y (150–500), BGT1 E52A (150–8,000), BGT1 E52A + Q299L (150–500), wt GAT3 (200–8,000), GAT3 L314Q (100–1,500), wt GAT1 (100–10,000) and wt GAT2 (150–7,500). […] Data presented is the pooled data of at least three independent experiments with three technical replicates if not stated otherwise in figure legends. Concentration–response curves were fitted by non-linear regression to the sigmoidal concentration-response model with GraphPad Prism (version 9.0.0, GraphPad Software, San Diego, CA, United States) as described ([Lie et al., 2020]).

[3] = biological target: T2, BGT1 E52A (Homo sapiens, UniProt P48065, E52A); assay: [3H]GABA uptake assay, transient expression in tsA201 cells; assay type: cell-based; details: BGT1 E52A vs BGT1 wt
T2 construct: expressed in transfected cells; host or cells: tsA201 (transformed HEK293), transient
T2 sequence (P48065 1-614 E52A): T1 sequence (P48065 1-614) with E52A
Method: The residue Q299 in human BGT1 corresponds to leucine in all other GATs (human, rat, mouse), while E52 corresponds to tyrosine in GAT1 (human, rat, mouse) but is conserved among GAT2, GAT3 and BGT1 (human, rat, mouse) (Figure 6A) ([Kickinger et al., 2019]).
(§4) The tsA201 cell line (a transformed HEK293 cell line), the Flp-In CHO cell lines stably expressing human (h) GATs and the HEK293 cell line stably expressing human α1β2γ2 GABAA receptors have been described previously and were cultured accordingly ([Al-Khawaja et al., 2014]; [Falk-Petersen et al., 2020]). The tsA201 cell line used for transient expression of hGATs was transfected with DNA constructs (8 μg per 10 cm plate) using 40 μL PolyFect transfection reagent according to the manufacturer’s protocol (Qiagen).
as §3, with “well.” for “well. Typical counts per minute for the different GATs were in the range of: wt hBGT1 (100–4,000), BGT1 Q299 (100–1,000), hBGT E52Y (150–500), BGT1 E52A (150–8,000), BGT1 E52A + Q299L (150–500), wt GAT3 (200–8,000), GAT3 L314Q (100–1,500), wt GAT1 (100–10,000) and wt GAT2 (150–7,500).”

[4] = biological target: T3, GAT3 L314Q (Homo sapiens, UniProt P48066, L314Q); assay: as above; assay type: cell-based; details: GAT3 L314Q, tsA201 cells; read-out: pIC50 ± S.E.M. (converted)
T3 construct: expressed in transfected cells; host or cells: tsA201 (transformed HEK293), transient
T3 sequence (P48066 1-632 L314Q): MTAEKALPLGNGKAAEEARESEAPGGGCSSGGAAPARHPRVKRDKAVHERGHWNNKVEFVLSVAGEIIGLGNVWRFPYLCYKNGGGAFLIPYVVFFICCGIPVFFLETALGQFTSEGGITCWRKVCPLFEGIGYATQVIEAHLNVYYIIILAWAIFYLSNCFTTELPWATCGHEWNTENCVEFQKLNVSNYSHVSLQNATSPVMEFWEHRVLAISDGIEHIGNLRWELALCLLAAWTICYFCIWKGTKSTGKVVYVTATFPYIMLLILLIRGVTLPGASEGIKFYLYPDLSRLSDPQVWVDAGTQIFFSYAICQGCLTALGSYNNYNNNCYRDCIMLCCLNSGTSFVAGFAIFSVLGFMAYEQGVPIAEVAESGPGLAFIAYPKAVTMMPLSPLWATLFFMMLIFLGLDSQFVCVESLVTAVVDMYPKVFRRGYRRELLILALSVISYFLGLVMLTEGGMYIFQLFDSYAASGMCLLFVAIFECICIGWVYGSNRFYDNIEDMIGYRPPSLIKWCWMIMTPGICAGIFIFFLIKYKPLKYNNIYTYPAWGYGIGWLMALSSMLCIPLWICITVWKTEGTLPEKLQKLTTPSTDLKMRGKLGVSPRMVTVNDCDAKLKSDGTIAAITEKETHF
Description: According to the docking and MD results, the sidechains of Q299 and E52 were identified to form crucial interactions with the protonated nitrogen of both compounds. The residue Q299 in human BGT1 corresponds to leucine in all other GATs (human, rat, mouse), while E52 corresponds to tyrosine in GAT1 (human, rat, mouse) but is conserved among GAT2, GAT3 and BGT1 (human, rat, mouse) (Figure 6A) ([Kickinger et al., 2019]). Thus, we engineered the corresponding mutants Q299L and E52Y in human BGT1 and predicted that the introduction of these mutations would lead to decreased activity of both bicyclo-GABA and 2 due to the loss of essential hydrogen bond interactions. Furthermore, we wanted to test the double mutant E52Y + Q299L. However, in a previous study this mutant was proven non-functional ([Kickinger et al., 2020]). Instead, we generated the double mutant E52A + Q299L as well as the single mutant E52A. For these mutants we predicted decreased activity. Lastly, the reciprocal mutation to BGT1 Q299L was created in GAT3 (L314Q), ideally expecting a gain-of-function.
FIGURE 6 (A) Pocket alignment of the orthosteric site of the four GAT subtypes colored according to the default ClustalX color scheme ([Larkin et al., 2007]). The pocket was defined as all corresponding GAT residues (15 in total) that are within a distance of 4.5 Å of the co-crystallized ligand leucine in the homologous LeuT crystal structure (PDB ID 2A65) ([Yamashita et al., 2005]) according to the alignment by Kickinger et al. ([Kickinger et al., 2019]). The mutated residues in BGT1 and the corresponding residues in GAT1-3 are indicated by a red box. The numbering of all residues within the orthosteric pocket can be found in the Supplementary Table S1.
as §4, with “(Qiagen). All DNA constructs used have been described previously: wt hBGT1, wt GAT3 ([Kvist et al., 2009]), BGT1 Q299, GAT3 L314Q ([Jørgensen et al., 2017]), hBGT E52Y, BGT1 E52A and BGT1 E52A + Q299L ([Kickinger et al., 2020]).” for “(Qiagen).”
as §3

[5] = test system: BGT1; parameters: method as in Kobayashi et al., 2014; details: ref Kobayashi et al., 2014, cited from earlier work

SMILES: CC1(CC(=O)O)CC1N (centres unmarked) [4a]
- inhibition at 100 µM [1]: 68%

SMILES: CN(C)[C@@]12CC[C@H](C(=O)O)[C@@H]1C2 [compound 3]
- Percentage inhibition of [3H]GABA uptake at any of the GATs [2]: < 15%

SMILES: NCCCC(=O)O [GABA, γ-aminobutyric acid]
- Increase in activity compared to wildtype [3]: not significantly altered
- IC50 [4]: 5.01 µM

SMILES: CCC1(CC(=O)O)CC1N (centres unmarked) [4b]
- Percentage inhibition of [3H]GABA uptake at any of the GATs [2]: < 15%

SMILES: NC1CC1(CC(=O)O)c1ccccc1 (centres unmarked) [4c]
- Percentage inhibition of [3H]GABA uptake at any of the GATs [2]: < 15%

SMILES: NC1CC1CC(=O)O [compound 1, (2S,3R)-4-amino-3,4-methanobutyric acid]
- Less potent than bicyclo-GABA [5]: 9 times
- Higher activity for BGT1 than GAT3 ([5]; subtype-selectivity BGT1 vs GAT3): three times higher activity
